Laboratory results as given in PMC8232766, “Chemical Composition and Immunomodulatory Activity of Essential Oils from Rhododendron albiflorum” (Molecules, 2021).

Legend:
human neutrophils [1] = assay: Neutrophil chemotaxis assay (fMLF-induced); assay type: cell-based; settings: pure compounds, chemotaxis induced by 1 nM fMLF; for IC50: Homo sapiens, Neutrophil
Source text: (§1) For isolation of human neutrophils, blood was collected from healthy donors in accordance with a protocol approved by the Institutional Review Board at Montana State University (Protocol #MQ041017), as described previously. Isolated neutrophils were washed and resuspended in HBSS^–. Neutrophil preparations were routinely >95% pure and >98% viable. Neutrophils were obtained from multiple different donors (n = 8); however, the cells from different donors were never pooled during experiments.
Human neutrophils were resuspended in HBSS^+ containing 2% (v/v) heat-inactivated fetal bovine serum (2 × 10^6 cells/mL), and chemotaxis was analyzed in 96-well ChemoTx chemotaxis chambers (Neuroprobe, Gaithersburg, MD), as described previously. Curve fitting (at least eight to nine points) and calculation of median effective concentration values (IC50) were performed by nonlinear regression analysis of the dose-response curves generated using GraphPad Prism 8.

[2] = system: human C20 microglial cells; assay: Ca2+ influx (direct effect) in C20 microglial cells; assay type: cell-based; settings: pure compounds, direct effect on [Ca2+]i, mean ± SD of three experiments; for EC50: Homo sapiens
Protocol: (§2) Human C20 microglial cells were kindly provided by Dr. David Alvarez-Carbonell (Department of Molecular Biology and Microbiology, Case Western Reserve University, Cleveland, OH, USA); these are immortalized primary human microglial cells that maintain characteristics of primary microglial cells. C20 cells were grown at 37 °C and 5% CO2 in DMEM:F12 medium supplemented with 10% FBS, 2.5 mM L-glutamine, 110 mg/L sodium pyruvate, 15 mM HEPES, 100 μg/mL normocin, 100 μg/mL streptomycin, and 100 U/mL penicillin.
(§3) For analysis of Ca^2+ influx in C20 microglial cells, the cells were plated in 96-well black, clear bottom plates at 10^4 cells/well in DMEM/F12 medium containing 10% FBS. The cells were treated with 200 nM PMA for 24 h, and the medium was changed every day for 5 days. On day 5, the cells were loaded with FLIPR Calcium 5 (Molecular Devices) at a volume ratio of 1:1 for 30 min at 37 °C in the dark. The plates were then placed in a FlexStation 3 fluorometer, and basal fluorescence was measured (λex = 485 nm, λem = 538 nm). Essential oils or individual compounds of interest were added manually (final concentration of DMSO was 1%), and fluorescence was monitored for 2 min to assess the direct effects of these treatments on [Ca^2+]i. After a 10 min incubation at 37 °C, the fluorescence baseline was recorded again, and 10 µM fMLF was added to evaluate inhibitory effects on agonist-induced [Ca^2+]i. Responses were normalized to the response induced by 10 µM fMLF.
(§4) For all Ca^2+ influx experiments, curve fitting (at least five or six points) and calculation of median effective concentration values (EC50 or IC50) were performed by nonlinear regression analysis of the dose–response curves generated using Prism 7 (GraphPad Software, Inc., San Diego, CA, USA).

FPR1-HL60 cells = target: T1, FPR1-HL60 cells (Homo sapiens, UniProt P21462); assay: Inhibition of fMLF-induced Ca2+ influx in FPR1-HL60 cells; assay type: cell-based; settings: pure compounds; 10 min preincubation; induced by 5 nM fMLF
T1 construct: expressed in transfected cells
T1 sequence (P21462 1-350): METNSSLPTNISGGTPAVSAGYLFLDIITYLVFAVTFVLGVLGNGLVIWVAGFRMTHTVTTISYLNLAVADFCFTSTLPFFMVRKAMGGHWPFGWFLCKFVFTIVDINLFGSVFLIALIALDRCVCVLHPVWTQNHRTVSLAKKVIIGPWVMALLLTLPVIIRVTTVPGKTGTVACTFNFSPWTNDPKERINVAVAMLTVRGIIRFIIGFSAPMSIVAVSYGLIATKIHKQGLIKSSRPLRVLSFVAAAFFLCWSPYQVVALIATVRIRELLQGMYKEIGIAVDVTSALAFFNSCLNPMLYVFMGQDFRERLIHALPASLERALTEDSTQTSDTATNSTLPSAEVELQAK
Protocol: (§5) Human promyelocytic leukemia HL60 cells stably transfected with FPR1 (FPR1-HL60 cells) or FPR2 (FPR2-HL60 cells) were kindly provided by Dr. Marie-Josephe Rabiet, INSERM, Grenoble, France. These cells were cultured in RPMI 1640 medium containing 10% heat-inactivated fetal calf serum, 10 mM HEPES, 100 μg/mL streptomycin, 100 U/mL penicillin, and G418 (1 mg/mL). G418 was removed before assays were performed.
(§6) Changes in intracellular Ca^2+ concentrations ([Ca^2+]i) in human neutrophils were measured with a FlexStation 3 scanning fluorometer (Molecular Devices), as previously described. To assess the direct effects of test compounds or pure essential oils on Ca^2+ influx, the compounds/oils were added to the wells (final concentration of DMSO was 1%), and changes in fluorescence were monitored (λex = 485 nm, λem = 538 nm) every 5 s for 240 s at room temperature after addition of the test compound. To evaluate inhibitory effects of the compounds on FPR1/FPR2-dependent Ca^2+ influx, the compounds were added to the wells (final concentration of DMSO was 1%) with cells (human neutrophils or FPR1/FPR2 HL60 cells). The samples were preincubated for 10 min, followed by addition of 5 nM fMLF (for human neutrophils or FPR1-HL60 cells) or 5 nM WKYMVM (for FPR2-HL60 cells). The maximum change in fluorescence, expressed in arbitrary units over baseline, was used to determine the agonist response. Responses were normalized to the response induced by 5 nM fMLF or 5 nM WKYMVM, which were assigned as 100%.
as §4

MAPKAPK2 = target: T2, MAPKAPK2 (Homo sapiens, UniProt P49137); assay: KINOMEscan kinase Kd determination, MAPKAPK2; assay type: binding; settings: maximum concentration of 33 µM
T2 construct: purchased Eurofins Pharma Discovery, San Diego, CA, USA (KINOMEscan service)
T2 sequence (P49137 whole entry): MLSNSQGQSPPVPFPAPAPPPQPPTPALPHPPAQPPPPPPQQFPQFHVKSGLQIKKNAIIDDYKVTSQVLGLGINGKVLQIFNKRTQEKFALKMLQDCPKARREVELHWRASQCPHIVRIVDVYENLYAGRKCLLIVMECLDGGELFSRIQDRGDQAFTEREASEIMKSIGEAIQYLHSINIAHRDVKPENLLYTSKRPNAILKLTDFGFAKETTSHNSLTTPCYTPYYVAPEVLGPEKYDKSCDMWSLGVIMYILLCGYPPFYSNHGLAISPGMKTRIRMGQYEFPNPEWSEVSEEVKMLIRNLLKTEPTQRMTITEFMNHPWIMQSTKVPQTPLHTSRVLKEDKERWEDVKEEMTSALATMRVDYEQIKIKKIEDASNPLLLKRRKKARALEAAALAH
Protocol: (§7) KINOMEscan®® was used to determine the dissociation constant (Kd) of the indicated sesquiterpenes for selected kinases (Eurofins Pharma Discovery, San Diego, CA, USA). […] Assays were performed in duplicate, and the average mean value is shown.

human neutrophils [3] = assay: Ca2+ influx (direct effect) in human neutrophils; assay type: cell-based; settings: pure compounds, direct effect on [Ca2+]i, mean ± SD of three experiments; for EC50: Homo sapiens, Neutrophil
Source text: as §1, §6, §4

FPR2-HL60 cells = target: T3, FPR2-HL60 cells (Homo sapiens, UniProt P25090); assay: Inhibition of WKYMVM-induced Ca2+ influx in FPR2-HL60 cells; assay type: cell-based; settings: pure compounds; 10 min preincubation; induced by 5 nM WKYMVM
T3 construct: expressed in transfected cells
T3 sequence (P25090 1-351): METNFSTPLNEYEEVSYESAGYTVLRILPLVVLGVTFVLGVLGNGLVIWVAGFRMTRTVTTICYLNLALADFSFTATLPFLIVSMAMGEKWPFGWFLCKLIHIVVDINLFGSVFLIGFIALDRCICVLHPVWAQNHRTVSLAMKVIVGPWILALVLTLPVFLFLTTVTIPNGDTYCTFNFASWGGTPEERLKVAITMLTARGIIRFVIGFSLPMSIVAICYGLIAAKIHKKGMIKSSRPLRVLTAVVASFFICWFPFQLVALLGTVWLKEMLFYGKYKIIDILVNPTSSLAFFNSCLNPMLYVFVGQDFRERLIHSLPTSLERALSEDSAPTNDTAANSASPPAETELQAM
Protocol: as §5, §6, §4

JNK3 = target: T4, JNK3 (Homo sapiens, UniProt P53779); assay: KINOMEscan kinase Kd determination, JNK3; assay type: binding; settings: maximum concentration of 33 µM
T4 construct: purchased Eurofins Pharma Discovery, San Diego, CA, USA (KINOMEscan service)
T4 sequence (P53779 whole entry): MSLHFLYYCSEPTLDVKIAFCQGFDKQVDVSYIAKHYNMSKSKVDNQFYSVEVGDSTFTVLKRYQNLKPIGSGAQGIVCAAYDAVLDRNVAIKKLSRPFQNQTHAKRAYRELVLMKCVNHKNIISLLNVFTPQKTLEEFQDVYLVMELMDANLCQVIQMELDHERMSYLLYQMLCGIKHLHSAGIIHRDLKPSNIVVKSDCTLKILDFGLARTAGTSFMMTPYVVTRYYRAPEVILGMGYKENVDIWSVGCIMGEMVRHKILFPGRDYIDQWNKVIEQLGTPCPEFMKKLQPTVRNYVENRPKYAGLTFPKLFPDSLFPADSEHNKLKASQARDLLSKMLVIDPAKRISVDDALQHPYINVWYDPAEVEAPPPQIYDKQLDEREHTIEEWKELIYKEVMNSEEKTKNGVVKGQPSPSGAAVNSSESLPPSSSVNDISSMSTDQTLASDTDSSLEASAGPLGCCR
Protocol: as §7

PIM1 = target: T5, PIM1 (Homo sapiens, UniProt P11309); assay: KINOMEscan kinase Kd determination, PIM1; assay type: binding; settings: maximum concentration of 33 µM
T5 construct: purchased Eurofins Pharma Discovery, San Diego, CA, USA (KINOMEscan service)
T5 sequence (P11309 whole entry): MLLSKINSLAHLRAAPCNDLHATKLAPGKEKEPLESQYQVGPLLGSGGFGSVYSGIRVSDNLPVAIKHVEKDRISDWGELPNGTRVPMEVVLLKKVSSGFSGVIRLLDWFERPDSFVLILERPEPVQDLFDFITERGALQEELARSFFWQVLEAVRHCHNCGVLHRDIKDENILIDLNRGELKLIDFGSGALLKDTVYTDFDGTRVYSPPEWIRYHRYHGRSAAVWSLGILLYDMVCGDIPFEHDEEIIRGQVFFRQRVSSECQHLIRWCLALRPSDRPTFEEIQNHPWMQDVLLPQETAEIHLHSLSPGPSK
Protocol: as §7

human neutrophils [4] = assay: Inhibition of fMLF-induced Ca2+ influx in human neutrophils; assay type: cell-based; settings: pure compounds, 10 min preincubation, induced by 5 nM fMLF; for IC50: Homo sapiens, Neutrophil
Source text: as §1, §6, §4

HL60 cells = assay: Cytotoxicity assay (CellTiter-Glo) in HL60 cells; assay type: cell-based, human; settings: oils up to 25 µg/mL, compounds up to 25 µM
Protocol: Cytotoxicity of essential oils and pure compounds was analyzed in human promyelocytic HL60 cells using a CellTiter-Glo Luminescent Cell Viability Assay Kit (Promega), as described previously.

[5] = system: human C20 microglial cells; assay: Inhibition of fMLF-induced Ca2+ influx in C20 microglial cells; assay type: cell-based; settings: 10 min, pure compounds, 10 min incubation, induced by 10 μM fMLF
Protocol: as §2, §3, §4

SMILES | IC50 (human neutrophils [1]) [µM] | EC50 [2] [µM] | IC50 (FPR1-HL60 cells) [µM] | Binding affinity (Kd) toward MAPKAPK2 (MAPKAPK2) | EC50 (human neutrophils [3]) [µM] | IC50 (FPR2-HL60 cells) [µM] | Binding affinity (Kd) toward JNK3 (JNK3) | Binding affinity (Kd) toward PIM1 (PIM1) | IC50 (human neutrophils [4]) [µM] | Cell viability (cytotoxicity), 30 min incubation (HL60 cells) | IC50 [5] [µM] | Cell viability (cytotoxicity), 2 h incubation (HL60 cells; 2 h) | Neutrophils Chemotaxis IC50 (human neutrophils [1]) | Ca2+ Influx C20 cells EC50 [2] | FPR1-HL60 Ca2+ Influx IC50 (FPR1-HL60 cells) | Ca2+ Influx Neutrophils EC50 (human neutrophils [3]) | FPR2-HL60 Ca2+ Influx IC50 (FPR2-HL60 cells) | Neutrophils Ca2+ Influx IC50 (human neutrophils [4])
C=C[C@]1(C)Cc2occ(C)c2C[C@H]1C(=C)C [Curzerene] | 37.9 ± 2.2 | 25.9 ± 5.2 | 21.8 ± 6.1 | did not observe any binding activity | 37.6 ± 8.4 | 16.7 ± 5.5 | did not observe any binding activity | did not observe any binding activity | 11 ± 3.8 | minimal effects on cell viability | 30.7 ± 4.4 |  |  |  |  |  |  | 
C[C@@H]1CC[C@H]2[C@@H]1[C@H]1[C@@H](CC[C@]2(C)O)C1(C)C [Viridiflorol, viridiflorol] | 18.3 ± 4.1 | 27.8 ± 4.6 | 19.5 ± 4.7 | did not observe any binding activity | 6.8 ± 2.3 | 10.7 ± 3.8 | did not observe any binding activity | did not observe any binding activity | 7.8 ± 2.3 | minimal effects on cell viability | 22.6 ± 3.1 | a little more cytotoxicity |  |  |  |  |  | 
CC(C)=C1C/C=C(\C)CC/C=C(\C)CC1=O [Germacrone] | 8.5 ± 0.6 | 27.7 ± 2.5 | 27.7 ± 2.9 | did not observe any binding activity | 24 ± 4.6 | 25 ± 7.2 | did not observe any binding activity | did not observe any binding activity | 27.9 ± 8.9 | minimal effects on cell viability | 10.7 ± 2.3 |  |  |  |  |  |  | 
C=C1C=CC(C(C)C)CC1 (stereo not drawn) [β-Phellandrene, β-phellandrene] | > 50 | > 50 | > 50 |  | > 50 | > 50 |  |  | > 50 |  | > 50 |  | inactive | inactive | no effect | inactive | no effect | no effect
C=C1CC[C@@H]2[C@H]([C@H]3[C@H]1CC[C@]3(C)O)C2(C)C [Spathulenol, spathulenol] | 4.9 ± 0.8 | > 50 | 32.2 ± 6.4 | did not observe any binding activity | 39.4 ± 9.5 | 31.6 ± 5.3 | did not observe any binding activity | did not observe any binding activity | 36.2 ± 8.2 | minimal effects on cell viability | 9.8 ± 3.4 |  |  | inactive or had very low activity |  |  |  | 
